Experimental data from PubChem BioAssay AID292 (DTP/NCI, 2004).
Several values for one entry are separate records, joined by “and”; a condition that tells them apart may be missing. Equal entries are not always repeated. Toxic doses and inconclusive results are not listed.

System: B6C3F1 mice, ip Sarcoma M5076, median survival T/C
Test: NCI In Vivo Anticancer Drug Screen. Data for tumor model Sarcoma M5076 (intraperitoneal) in B6C3F1 mice
Settings: endpoint: median survival time, higher = longer survival
Outline: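 Transplantable tumour in mice; compound-treated vs vehicle-treated groups. Read-out: survival. Value = treated/control ratio.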

[1] = dose: 25.0 mg/kg/injection, schedule: Q04DX004 (ip), vehicle: saline with Tween-80
[2] = dose: 50.0 mg/kg/injection, schedule: Q04DX004 (ip), vehicle: saline with Tween-80
[3] = dose: 100.0 mg/kg/injection, schedule: Q04DX004 (ip), vehicle: saline with Tween-80
[4] = dose: 43.75 mg/kg/injection, schedule: Q04DX004 (ip), vehicle: saline with Tween-80
[5] = dose: 87.5 mg/kg/injection, schedule: Q04DX004 (ip), vehicle: saline with Tween-80
[6] = dose: 175.0 mg/kg/injection, schedule: Q04DX004 (ip), vehicle: saline with Tween-80
[7] = dose: 350.0 mg/kg/injection, schedule: Q04DX004 (ip), vehicle: saline with Tween-80
[8] = dose: 200.0 mg/kg/injection, schedule: Q04DX004 (ip), vehicle: saline with Tween-80

## CC(CNC(=O)C12CC3CC(CC(C3)C1)C2)NC(=O)C12CC3CC(CC(C3)C1)C2 (configuration not stated)
dose: 25.0 mg/kg/injection, schedule: Q04DX004 (ip), vehicle: other
  T/C: 94 % of control
dose: 50.0 mg/kg/injection, schedule: Q04DX004 (ip), vehicle: other
  T/C: 98 % of control
dose: 100.0 mg/kg/injection, schedule: Q04DX004 (ip), vehicle: other
  T/C: 90 % of control
dose: 200.0 mg/kg/injection, schedule: Q04DX004 (ip), vehicle: other
  T/C: 98 % of control

## CC(=O)Nc1ccc(O)c(O)c1
dose: 75.0 mg/kg/injection, schedule: Q04DX004 (ip), vehicle: saline with Tween-80
  T/C: 107 % of control
dose: 150.0 mg/kg/injection, schedule: Q04DX004 (ip), vehicle: saline with Tween-80
  T/C: 113 % of control
dose: 300.0 mg/kg/injection, schedule: Q04DX004 (ip), vehicle: saline with Tween-80
  T/C: 105 % of control
dose: 600.0 mg/kg/injection, schedule: Q04DX004 (ip), vehicle: saline with Tween-80
  T/C: 101 % of control
dose: 1200.0 mg/kg/injection, schedule: Q04DX004 (ip), vehicle: saline with Tween-80
  T/C: 104 % of control

## COc1ccc(-c2cc(C(=O)Nc3cc(C(F)(F)F)cc(C(F)(F)F)c3)c3ccccc3n2)cc1
dose: 50.0 mg/kg/injection, schedule: Q04DX004 (ip), vehicle: DMSO
  T/C: 101 % of control
dose: 100.0 mg/kg/injection, schedule: Q04DX004 (ip), vehicle: DMSO
  T/C: 94 % of control
dose: 200.0 mg/kg/injection, schedule: Q04DX004 (ip), vehicle: DMSO
  T/C: 110 % of control
dose: 400.0 mg/kg/injection, schedule: Q04DX004 (ip), vehicle: DMSO
  T/C: 111 % of control

## C=C(Cl)C(=NC(C)(C)C)Nc1ccccc1C
dose: 3.0 mg/kg/injection, schedule: Q04DX004 (ip), vehicle: Klucel (hydroxypropylcellulose) (HPC)
  T/C: 98 % of control
dose: 6.0 mg/kg/injection, schedule: Q04DX004 (ip), vehicle: Klucel (hydroxypropylcellulose) (HPC)
  T/C: 116 % of control
dose: 6.25 mg/kg/injection, schedule: Q04DX004 (ip), vehicle: Klucel (hydroxypropylcellulose) (HPC)
  T/C: 108 % of control
dose: 12.0 mg/kg/injection, schedule: Q04DX004 (ip), vehicle: Klucel (hydroxypropylcellulose) (HPC)
  T/C: 103 % of control
dose: 24.0 mg/kg/injection, schedule: Q04DX004 (ip), vehicle: Klucel (hydroxypropylcellulose) (HPC)
  T/C: 98 % of control
dose: 25.0 mg/kg/injection, schedule: Q04DX004 (ip), vehicle: Klucel (hydroxypropylcellulose) (HPC)
  T/C: 117 % of control
dose: 48.0 mg/kg/injection, schedule: Q04DX004 (ip), vehicle: Klucel (hydroxypropylcellulose) (HPC)
  T/C: 104 % of control

## CC(/C=C/C1OC(=O)C=CC1C)=C\C(C)C/C=C/C(C)=C/C(CO)C(=O)C(C)C(O)C(C)C/C(C)=C/C(=O)O (configuration not stated)
dose: 13.63 micrograms/kg/injection, schedule: Q04DX004 (ip), vehicle: other
  T/C: 100 % of control
dose: 27.25 micrograms/kg/injection, schedule: Q04DX004 (ip), vehicle: other
  T/C: 107 % of control
dose: 54.5 micrograms/kg/injection, schedule: Q04DX004 (ip), vehicle: other
  T/C: 109 % of control
dose: 109.0 micrograms/kg/injection, schedule: Q04DX004 (ip), vehicle: other
  T/C: 113 % of control
dose: 500.0 micrograms/kg/injection, schedule: Q04DX004 (ip), vehicle: other
  T/C: 171 % of control
dose: 1000.0 micrograms/kg/injection, schedule: Q04DX004 (ip), vehicle: other
  T/C: 202 % of control
dose: 2000.0 micrograms/kg/injection, schedule: Q04DX004 (ip), vehicle: other
  T/C: 192 % of control

## O=c1ccn(C2CC3[O][Sn]([c]4ccccc4)([c]4ccccc4)[O]CC3O2)c(=O)[nH]1 (configuration not stated)
dose: 25.0 mg/kg/injection, schedule: Q04DX004 (ip), vehicle: distilled water + Tween-80
  T/C: 104 % of control
dose: 50.0 mg/kg/injection, schedule: Q04DX004 (ip), vehicle: distilled water + Tween-80
  T/C: 102 % of control
dose: 100.0 mg/kg/injection, schedule: Q04DX004 (ip), vehicle: distilled water + Tween-80
  T/C: 101 % of control
dose: 200.0 mg/kg/injection, schedule: Q04DX004 (ip), vehicle: distilled water + Tween-80
  T/C: 103 % of control
dose: 400.0 mg/kg/injection, schedule: Q04DX004 (ip), vehicle: distilled water + Tween-80
  T/C: 102 % of control

## CCN(CC)Cc1c(OC)ccc2[nH]c3c4ccc(Cl)cc4ncc3c12
dose: 15.63 mg/kg/injection, schedule: Q04DX004 (ip), vehicle: saline with Tween-80
  T/C: 104 % of control
dose: 31.25 mg/kg/injection, schedule: Q04DX004 (ip), vehicle: saline with Tween-80
  T/C: 106 % of control
dose: 62.5 mg/kg/injection, schedule: Q04DX004 (ip), vehicle: saline with Tween-80
  T/C: 105 % of control
dose: 125.0 mg/kg/injection, schedule: Q04DX004 (ip), vehicle: saline with Tween-80
  T/C: 101 % of control
dose: 250.0 mg/kg/injection, schedule: Q04DX004 (ip), vehicle: saline with Tween-80
  T/C: 100 % of control

## Clc1ccccc1C(Cc1c(Cl)cccc1Cl)Cn1ccnc1 (configuration not stated)
dose: 12.5 mg/kg/injection, schedule: Q04DX004 (ip), vehicle: saline with Tween-80
  T/C: 100 % of control
[1]
  T/C: 101 % of control
[2]
  T/C: 101 % of control
[3]
  T/C: 93 % of control

## N#CC1C(=O)NC(=O)C(C#N)C1C1C(=O)NC2CCCCC21 (configuration not stated)
[4]
  T/C: 93 % of control
[5]
  T/C: 100 % of control
[6]
  T/C: 95 % of control
[7]
  T/C: 95 % of control

## Nc1ccn(C2OC(CO)C(O)C2O)c(=O)n1 (configuration not stated)
dose: 12.5 mg/kg/injection, schedule: Q01DX009 (ip), vehicle: saline
  T/C: 150 % of control
dose: 25.0 mg/kg/injection, schedule: Q01DX009 (ip), vehicle: saline
  T/C: 162 % of control

## CC(=O)C(Cl)C(=O)c1c(C)[nH]n(-c2ccccc2)c1=O (configuration not stated)
dose: 50.0 mg/kg/injection, schedule: Q04DX004 (ip), vehicle: Klucel (hydroxypropylcellulose) (HPC)
  T/C: 99 % of control
dose: 100.0 mg/kg/injection, schedule: Q04DX004 (ip), vehicle: Klucel (hydroxypropylcellulose) (HPC)
  T/C: 113 % of control
dose: 200.0 mg/kg/injection, schedule: Q04DX004 (ip), vehicle: Klucel (hydroxypropylcellulose) (HPC)
  T/C: 92 % of control

## CN(C)CCCN=c1c2ccccc2n(C)c2[nH]c(=O)n(C)c(=O)c12
dose: 7.5 mg/kg/injection, schedule: Q04DX004 (ip), vehicle: saline
  T/C: 101 % of control
dose: 15.0 mg/kg/injection, schedule: Q04DX004 (ip), vehicle: saline
  T/C: 99 % of control
dose: 30.0 mg/kg/injection, schedule: Q04DX004 (ip), vehicle: saline
  T/C: 102 % of control

## O=[n+]1c2c(n([O-])c3ccccc31)CCC2
dose: 21.9 mg/kg/injection, schedule: Q04DX004 (ip), vehicle: saline with Tween-80
  T/C: 103 % of control
[4]
  T/C: 102 % of control
[5]
  T/C: 104 % of control
[6]
  T/C: 107 % of control and 108 % of control
[7]
  T/C: 109 % of control and 110 % of control

## C=C1C(O)C2(O)OCC34C(CC5C(C)=CC(=O)C(O)C5(C)C23)OC(=O)C(OC(=O)C/C=C(\C)CCCCC)C14 (configuration not stated)
dose: 1.0 mg/kg/injection, schedule: Q04DX004 (ip), vehicle: saline + alcohol
  T/C: 105 % of control and 107 % of control
dose: 2.0 mg/kg/injection, schedule: Q04DX004 (ip), vehicle: saline + alcohol
  T/C: 104 % of control and 122 % of control
dose: 4.0 mg/kg/injection, schedule: Q04DX004 (ip), vehicle: saline + alcohol
  T/C: 102 % of control and 108 % of control

## C/C([O-])=c1\c(C)nn2ccc[n+]12
[1]
  T/C: 100 % of control
[2]
  T/C: 106 % of control
[3]
  T/C: 103 % of control
[8]
  T/C: 94 % of control

## CCOC(=O)Nc1cc2c(c(N)n1)N=C(c1ccccc1)CO2
[2]
  T/C: 101 % of control
[3]
  T/C: 107 % of control
[8]
  T/C: 109 % of control
dose: 400.0 mg/kg/injection, schedule: Q04DX004 (ip), vehicle: saline with Tween-80
  T/C: 105 % of control

## O=c1cc(CCl)[nH]nc1CCl
dose: 3.0 mg/kg/injection, schedule: Q04DX004 (ip), vehicle: saline with Tween-80
  T/C: 111 % of control
dose: 6.0 mg/kg/injection, schedule: Q04DX004 (ip), vehicle: saline with Tween-80
  T/C: 110 % of control
dose: 12.0 mg/kg/injection, schedule: Q04DX004 (ip), vehicle: saline with Tween-80
  T/C: 112 % of control
dose: 24.0 mg/kg/injection, schedule: Q04DX004 (ip), vehicle: saline with Tween-80
  T/C: 120 % of control
dose: 48.0 mg/kg/injection, schedule: Q04DX004 (ip), vehicle: saline with Tween-80
  T/C: 114 % of control

## Cc1c2ccccc2cc2cccc[n+]12
dose: 10.0 mg/kg/injection, schedule: Q04DX004 (ip), vehicle: saline
  T/C: 100 % of control
dose: 20.0 mg/kg/injection, schedule: Q04DX004 (ip), vehicle: saline
  T/C: 96 % of control
dose: 40.0 mg/kg/injection, schedule: Q04DX004 (ip), vehicle: saline
  T/C: 96 % of control
